Test results: article doi:10.1101/2021.10.07.463234v2 (biorxiv, 2021)
“And” between values parts separate entries of the source, which are not always exact repeats. Equal entries are not always repeated.

Assays:
human MacroD2 = human MacroD2 (Homo sapiens, UniProt A1Z1Q3); assay: ADPr-Glo luminescence ADP-ribosylhydrolase assay; type: biochemical
SARS-CoV-2 Mac1 [1] = target: T1, SARS-CoV-2 Mac1 (Severe acute respiratory syndrome coronavirus 2, UniProt P0DTD1); assay: biochemical
SARS-CoV-2 Mac1 [2] = target: T1, SARS-CoV-2 Mac1; assay: biochemical; remark: listed apart in the source

Sequence of human MacroD2 (A1Z1Q3 whole entry): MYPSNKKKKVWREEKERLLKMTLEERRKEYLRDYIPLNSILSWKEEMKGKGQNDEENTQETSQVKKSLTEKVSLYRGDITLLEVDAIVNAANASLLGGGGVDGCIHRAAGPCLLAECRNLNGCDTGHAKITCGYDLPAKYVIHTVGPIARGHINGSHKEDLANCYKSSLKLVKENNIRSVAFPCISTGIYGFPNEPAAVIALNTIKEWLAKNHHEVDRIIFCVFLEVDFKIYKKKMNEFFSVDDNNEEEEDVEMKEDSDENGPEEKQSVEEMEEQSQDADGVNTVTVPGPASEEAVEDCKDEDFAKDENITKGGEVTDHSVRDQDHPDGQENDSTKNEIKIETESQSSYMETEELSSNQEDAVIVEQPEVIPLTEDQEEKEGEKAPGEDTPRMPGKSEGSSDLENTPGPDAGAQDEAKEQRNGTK

| SMILES | IC50 (human MacroD2) | IC50 (SARS-CoV-2 Mac1 [1]) | %inhibition (SARS-CoV-2 Mac1 [2]; 100 µM, inhibitor) | inhibition at 100 µM (SARS-CoV-2 Mac1 [2]; read-out: %inhibition) |
| --- | --- | --- | --- | --- |
| Cc1nc(Nc2ncc(C(=O)Nc3c(C)cccc3Cl)s2)cc(N2CCN(CCO)CC2)n1 [dasatinib] | > 2 mM | 37.5 to 57.5 µM | 66.44% and 68.55% | 78.6% |
| NNc1nnc(NN)c2ccccc12 [dihydralazine] | 0.5 to 1.83 mM | 485 to 757 µM |  |  |
